Experimental data published in patent US9079821B2, “Quinone based nitric oxide donating compounds” (NICOX S.A., priority 2011, dated 2015).
Each block holds one compound with its values, some of them ahead of it.

Legend:
[1] = Pharmacokinetic profile in mice (blood 15N-nitrite levels); format: in vivo; conditions: CD1 mice
Experimental: (§1) The absorption and in vivo NO-donating property of the compounds of the invention were assessed by the evaluation of blood ^15N-nitrite levels following oral administration.
Tested Compounds: • 10-(4,5-dimethoxy-2-methyl-3,6-dioxocyclohexa-1,4-dienyl)decyl nitrate-nitrogen-15 which correspond to compound (6) containing nitrogen-15 (^15N-Compound (6)); • 5-isorbide mononitrate containing nitrogen-15 (5-ISM^15N)
Male CD1 mice (n=3/time point) were orally treated with ^15N-Compound (6) at 100 mg/kg or 5-ISM^15N (30 mg/kg). At each time point (5, 10, 15, 30, 60, 120, 240, 360, 480 and 1440 min) blood was taken by cardiac puncture using heparin to avoid blood clotting. Blood samples were immediately protein crushed. Samples were analyzed by LC-MS/MS. ^15N-nitrite levels following oral administration of Compound (6) (100 mg/kg) or 5-ISM^15N (30 mg/kg) in CD1 mice are reported in Table 6.

[2] = Pharmacokinetic profile in rats (blood 15N-nitrite levels); format: in vivo, rat; conditions: rat, in vivo, po, 30 mg/kg
Experimental: as §1
Tested Compounds: • 5-(2,4,5-trimethyl-3,6-dioxocyclohexa-1,4-dienylpentyl nitrate-nitrogen-15 which corresponds to compound (1) containing nitrogen-15 (^15N-Compound (1)); • 5-(4,5-dimethoxy-2-methyl-3,6-dioxocyclohexa-1,4-dienyl)pentyl nitrate-nitrogen-15 which corresponds to compound (2) containing nitrogen-15 (^15N-Compound (2)); • 4-(2,4,5-trimethyl-3,6-dioxocyclohexa-1,4-dienyl)butyl nitrate-nitrogen-15 which corresponds to compound (3) containing nitrogen-15 (^15N-Compound (3)); • 4-(4,5-dimethoxy-2-methyl-3,6-dioxocyclohexa-1,4-dienyl)butyl nitrate-nitrogen-15 which corresponds to compound (4) containing nitrogen-15 (^15N-Compound (4)); • 10-(2,4,5-trimethyl-3,6-dioxocyclohexa-1,4-dienyl)decyl nitrate-nitrogen-15 which corresponds to compound (5) containing nitrogen-15 (^15N-Compound (5)); • 10-(4,5-dimethoxy-2-methyl-3,6-dioxocyclohexa-1,4-dienyl)decyl nitrate-nitrogen-15 which corresponds to compound (6) containing nitrogen-15 (^15N-Compound (6)); • 3-(3-(4,5-dimethoxy-2-methyl-3,6-dioxocyclohexa-1,4-dienyl)propoxy)propyl nitrate-nitrogen-15 which corresponds to compound (14) containing nitrogen-15 (^15N-Compound (14)); • 6-(2,4,5-trimethyl-3,6-dioxocyclohexa-1,4-dienyl)hexyl nitrate-nitrogen-15 which corresponds to compound (15) containing nitrogen-15 (^15N-Compound (15)); • 6-(4,5-dimethoxy-2-methyl-3,6-dioxocyclohexa-1,4-dienyl)hexyl nitrate-nitrogen-15 which corresponds to compound (16) containing nitrogen-15 (^15N-Compound (16)); • 11-(4,5-dimethoxy-2-methyl-3,6-dioxocyclohexa-1,4-dienyl)-undecane-1,2-diyl dinitrate-nitrogen-15 which corresponds to compound (17) containing nitrogen-15 (^15N-Compound (17)); • 8-(5-methoxy-2,4-dimethyl-3,6-dioxocyclohexa-1,4-dienyl)octyl nitrate-nitrogen—which corresponds to compound (19) containing nitrogen-15 (^15N-Compound (19)); • 2-(3-(4,5-dimethoxy-2-methyl-3,6-dioxocyclohexa-1,4-dienyl)propoxy)ethyl nitrate-nitrogen-15 which corresponds to compound (20) containing nitrogen-15 (^15N-Compound (20)); • 6-(3-methyl-1,4-dioxo-1,4-dihydronaphthalen-2-yl)hexyl nitrate-nitrogen-15 which corresponds to compound (23) containing nitrogen-15 (^15N-Compound (23)); • 3-(3-(3-methyl-1,4-dioxo-1,4-dihydronaphthalen-2-yl)propoxy)propyl nitrate-nitrogen-15 which corresponds to compound (25) containing nitrogen-15 (^15N-Compound (25)); • 6-(5-methoxy-2,4-dimethyl-3,6-dioxocyclohexa-1,4-dienyl)hexyl nitrate-nitrogen-15 which corresponds to compound (28) containing nitrogen-15 (^15N-Compound (28)); • 6-(4-methoxy-2,5-dimethyl-3,6-dioxocyclohexa-1,4-dienyl)hexyl nitrate-nitrogen-15 which corresponds to compound (29) containing nitrogen-15 (^15N-Compound (29)); • 8-(4-methoxy-2,5-dimethyl-3,6-dioxocyclohexa-1,4-dienyl)octyl nitrate-nitrogen-15 which corresponds to compound (32) containing nitrogen-15 (^15N-Compound (32)); • 8-(2,4,5-trimethyl-3,6-dioxocyclohexa-1,4-dienyl)octyl nitrate-nitrogen-15 which corresponds to compound (34) containing nitrogen-15 (^15N-Compound (34)); • 5-isorbide mononitrate containing nitrogen-15 (5-ISM^15N).
(§2) Cannulated SD rats were orally treated with ^15N-Compounds (6) at 30 mg/kg, 5-ISM^15N (30 mg/kg), or ^15N-Compounds (1)-(5), 14)-(17), (19), (20), (23), (25), (28), (29), (32), (34) at 30 mg/kg. At each time point (5, 10, 15, 30, 60, 180, 360 and 1440 min) blood was taken using heparin to avoid blood clotting. Blood samples were immediately protein crushed. Samples were analyzed by LC-MS/MS.
In Table 7 are reported ^15N-nitrite blood levels following oral administration of SD rats with 5-ISM^15N (30 mg/kg) or with ^15N-labeled corresponding compounds of the invention (30 mg/kg).

[3] = tested on: rat L-NAME-induced hypertension; assay: Rat L-NAME-induced hypertension, systolic blood pressure after single oral dose; format: in vivo; conditions: for Delta vs basal (mmHg): 5-ISMN 30 mg/kg oral, L-NAME 50 mg/kg i.p.
Experimental: To assess the in vivo NO-dependent activity, Compound (6) was evaluated for systolic blood pressure (SBP) reduction efficacy in a rat model of NO-deprivation induced by L-NAME and compared with 5-ISMN.
(§3) Fasted male SD rats (250-300 g, n=3-5 per group), obtained from Harlan Italy (Correzzana, Milan, Italy) were orally treated with tested compounds or vehicle (DMSO:Methocel 1% 2/98 v/v) in a total volume of 4 ml/kg by gavage. At each time point (1, 3, 6 and 24 h) animals were deeply anesthetized with Zoletil® 100 (3 mg/kg), given intramuscularly. Thereafter, a pressure catheter (Samba Sensors, Harvard Apparatus, UK) was introduced into the common carotid artery for central blood pressure measurement. Pressure transducer was connected to a personal computer, in order to allow real time monitor of the pressure tracing. After 10 minutes of basal recording, L-NAME (50 mg/kg) was administered intraperitoneally and the effect on SBP monitored. When the SBP stabilized (5 minutes without variations) the recording was stopped. To further confirm that functional activity was NO-dependent, at each time point blood ^15N-nitrite levels were measured following the procedure described in Example 12.

[4] = tested on: isolated aortas from rats; assay: Ex vivo tolerance evaluation (vascular response of isolated aortas from treated rats); format: in vivo, rat; conditions: for EC50: vascular response to 5-ISMN, 1 h after last administration
Experimental: (§4) Thoracic aortas from male New Zealand rabbits or male Sprague Dawley (SD) were used. The aortas were placed immediately in Krebs-HEPES buffer (pH 7.4; composition mM: NaCl 130.0, KCl 3.7, NaHCO3 14.9, KH2PO4 1.2, MgSO4.7H2O 1.2, Glucose 11.0, HEPES 10.0, CaCl2.2H2O 1.6). Connective tissue was removed and aortas were cut into ring segments (4-5 mm in length). Each ring was placed in a 5 mL tissue bath filled with Krebs-HEPES buffer (37° C.) aerated with 95% O2 and 5% CO2 and was attached to a force transducer (Grass FT03), connected to a BIOPAC MP150 System for measurement of the isometric tension. Preparations were allowed to equilibrate for 1 h at a resting tension of 2 g for rabbit aortas and 1 g for rat aortas with changes of the buffer every 15 min. Then the rings were stimulated by exposure to 90 mM KCl (3 times) with intervening washings.
(§5) Rat aorta. After equilibration, rat aortas were precontracted with KCl (90 mM) and, when the contraction was stable, a cumulative concentration-response curve to acetylcholine (ACh, 0.01-100 μM) was added. After washout, the rings were precontracted again with KCl (90 mM). When a steady-state level of contraction was obtained, a cumulative concentration-response curve to the tested compounds (0.01-100 μM) was obtained.
(§6) Data analysis. Results are given as mean±SEM. Vascular responses are expressed as percentage relaxation and plotted vs concentration. The sensitivity of isolated aorta to different vasodilators is expressed as the concentration that elicited 50% of the maximal responses (EC50). Responses are quantified in terms of EC50 and Emax (maximal vasodilating effect) values, obtained from the concentration-response curve by nonlinear curve fitting, using GraphPad software.
Tolerance to nitrate was further investigated assessing the vascular effects of Compound (6) following repeated treatment compared with 5-ISMN. The vascular response to the compound itself was assessed on isolated aortas from rats orally treated for 5 days with Compound (6) (100 mg/kg). The vascular response was performed as described in Example 6.
Vascular responses were performed 1 h (ISMN) or 3 h (Compound (6)) after the last administration, the concentrations of tested compound that elicited the 50% of the maximal responses (EC50) are shown in Table 4.

[5] = tested on: rat L-NAME-induced hypertension; assay: In vivo tolerance evaluation (L-NAME-induced hypertension after 5-day oral treatment); conditions: for Delta vs basal (mmHg): peak effect 1 hour
Experimental: as §3
To investigate whether the compound (6) induced nitrate tolerance, as observed for most of the drugs belonging to the nitrate class, the L-NAME-induced hypertension rat model described in Example 7 was performed following a repeated oral treatment. Rats were orally treated for 5 days with vehicle, compound (6) (100 mg/kg) or 5-ISMN (30 mg/kg). […] The experiments were performed at the peak effect (1 hour for 5-ISMN and 3 hours for Compound (6)), results are reported in Table 3.

[6] = tested on: rat aorta, endothelial-dependent vasodilation (response to ACh); assay: Endothelial dysfunction evaluation (vascular response to acetylcholine after treatment); format: in vivo; conditions: for % relaxation (Emax): response to ACh
Experimental: as §4, §5, §6
Endothelial-dependent vasodilation (vascular response to acetylcholine, ACh) was assessed following 5-day treatment with Compound (6) (100 mg/kg) or 5-ISMN (30 mg/kg). A relaxant response to ACh indicated the presence of a functional endothelium. The vascular response was performed as described in Example 6.

[7] = Blood 15N-nitrite levels in the rat L-NAME-induced hypertension study; format: in vivo; conditions: 5-ISMN 30 mg/kg oral
Experimental: as §3, §2

Structure (SMILES): O=[N+]([O-])O[C@@H]1CO[C@H]2[C@@H]1OC[C@@H]2O [5-ISM^15N, 5-isorbide mononitrate containing nitrogen-15, reference compound]
15N-nitrite AUC0-24 ([1]; oral 30 mg/kg): 2758 µM·min
15N-nitrite Tmax ([1]; oral 30 mg/kg): 30 min
Cmax ([1]; oral 30 mg/kg): 27.5 ± 3 µM
15N-nitrite AUC0-24 [2]: 7399 µM·min
15N-nitrite Tmax [2]: 60 min
Cmax [2]: 20.6 ± 4.2 µM

Structure (SMILES): O=[N+]([O-])O[C@@H]1CO[C@H]2[C@@H]1OC[C@@H]2O [Compound 5-ISMN, isosorbide-5-mononitrate, reference compound]
Delta vs basal (mmHg) ([3]; 1 hour): 10.5 ± 6.1 mmHg
Delta vs basal (mmHg) ([3]; 3 hours): 6.5 ± 2.4 mmHg
Delta vs basal (mmHg) ([3]; 6 hours): 51.2 ± 5.7 mmHg
Delta vs basal (mmHg) ([3]; 24 hours): 83 ± 9 mmHg
time over which L-NAME induced hypertension was counteracted after treatment ([3]; 5-ISMN 30 mg/kg, single oral administration): ≤ 3 h
vascular response of aortas from treated animals vs control arteries, in words ([4]; 5-ISMN 30 mg/kg, repeated treatment): showed a reduced vascular response to 5-ISMN compared to control arteries
EC50 ([4]; acute, aortas of rats given 5-ISMN 30 mg/kg): 20 ± 0.6 µM
EC50 ([4]; repeated (5 days oral) 5-ISMN 30 mg/kg): 127 ± 48 µM
efficacy against L-NAME-induced hypertension after 5-day treatment (nitrate tolerance), in words ([5]; 5-ISMN 30 mg/kg oral, 5 days): did not maintain its efficacy in preventing L-NAME-induced hypertension
Delta vs basal (mmHg) ([5]; acute treatment, 5-ISMN 30 mg/kg oral): 10.5 ± 6.1 mmHg
Delta vs basal (mmHg) ([5]; repeated (5 days) oral treatment, 5-ISMN 30 mg/kg): 88 ± 11.5 mmHg
effect on endothelial-dependent vasorelaxation, in words ([6]; 5-ISMN 30 mg/kg, 5-day treatment): caused a reduced response to Ach
% relaxation (Emax) ([6]; acute, 5-ISMN 30 mg/kg): 92.7 ± 4.3%
% relaxation (Emax) ([6]; repeated (5-day) 5-ISMN 30 mg/kg): 78.2 ± 9.2%
15N-nitrite levels ([7]; 1 hour): 11.0 ± 0.5 µM
15N-nitrite levels ([7]; 3 hours): 8.7 ± 0.7 µM
15N-nitrite levels ([7]; 6 hours): 6.5 ± 0.5 µM
15N-nitrite levels ([7]; 24 hours): 0.34 ± 0.06 µM

15N-nitrite AUC0-24 ([1]; oral 100 mg/kg): 1225 µM·min
15N-nitrite Tmax ([1]; oral 100 mg/kg): 30 min
15N-nitrite AUC0-24 [2]: 2469 µM·min
15N-nitrite Tmax [2]: 180 min
Structure (SMILES): COC1=C(OC)C(=O)C(CCCCCCCCCCO[15N+](=O)[O-])=C(C)C1=O [^15N-Compound (6), 10-(4,5-dimethoxy-2-methyl-3,6-dioxocyclohexa-1,4-dienyl)decyl nitrate-nitrogen-15]

Structure (SMILES): COC1=C(OC)C(=O)C(CCCCCCCCCCO[N+](=O)[O-])=C(C)C1=O [^15N-Compound (6), 10-(4,5-dimethoxy-2-methyl-3,6-dioxocyclohexa-1,4-dienyl)decyl nitrate-nitrogen-15]
Cmax ([1]; oral 100 mg/kg): 3.1 ± 0.3 µM
Cmax [2]: 2.6 ± 0.2 µM
